Assay results taken from ChEMBL document CHEMBL5537157, “Selective Antitumor Effect and Lower Toxicity of Mitochondrion-Targeting Derivatization of Triptolide” (J Med Chem, 2024).
Calls of active or inactive are those of the source. No cut-off for these calls is given here.

Columns and labels:
[1] = Toxicity in zebrafish embryo assessed as damage effect in liver function at 1 uM with replacement of new growth solution daily by fluorescence microscopy relative to control; set-up: species or system Danio rerio; conditions: in vivo
[2] = Toxicity in zebrafish embryo assessed as damage effect in liver development at 2 uM with replacement of new growth solution daily by fluorescence microscopy relative to control; assay type: tissue-based, Danio rerio; conditions: in vivo
[3] = Toxicity in zebrafish embryo assessed as damage effect in liver development at 1 uM with replacement of new growth solution daily by fluorescence microscopy relative to control; assay type: tissue-based, Danio rerio; conditions: in vivo
[4] = Developmental toxicity in zebrafish AB zygotes assessed as decrease in hatching rate at 2 to 4 uM treated at 6 hrs post-fertilization measured at 24 to 72 hrs post-fertilization; set-up: species or system Danio rerio; conditions: in vivo, dose lower 2 µM, time lower 18 hrs, dose upper 4 µM, time upper 66 hrs
BEAS-2B [5] = assay: Induction of ROS generation in human BEAS-2B cells at 0.4 uM incubated for 24 hrs by DCFH-DA probe based analysis; assay type: toxicity, cell-based
NCI-H1975 [6] = assay: Inhibition of mitochondrial membrane potential in human NCI-H1975 cells at 200 nM incubated for 24 hrs by JC-1 staining based flow cytometry; assay type: functional, cell-based
NCI-H1975 [7] = assay: Cytotoxicity against human NCI-H1975 cells assessed as inhibition of cell viability incubated for 48 hrs by MTT assay; assay type: functional, cell-based; conditions: NCI-H1975, 48 h
Danio rerio [8] = species: Danio rerio; assay: Induction of ROS production in zebrafish at 2 uM measured after 48 hrs by fluorescence microscopy; assay type: functional, organism-based
NCI-H1975 [9] = assay: Inhibition of cell viability in human NCI-H1975 cells assessed as effect on cell index at 30 nM by real-time cell analysis; assay type: functional, cell-based
[10] = Developmental toxicity in zebrafish AB zygotes assessed as decrease in body length treated at 6 hrs post-fertilization measured at 24 to 72 hrs post-fertilization; set-up: species or system Danio rerio; conditions: in vivo, dose lower 0.25 µM, time lower 18 hrs, dose upper 4 µM, time upper 66 hrs
BEAS-2B [11] = assay: Inhibition of mitochondrial membrane potential in human BEAS-2B cells at 200 nM incubated for 24 hrs by JC-1 staining based flow cytometry; assay type: toxicity, cell-based; conditions: 0.2 µM
NCI-H1975 [12] = assay: Inhibition of cell proliferation in human NCI-H1975 cells xenografted in zebrafish at 1 to 2 uM measured after 48 hrs by confocal microscopy; assay type: functional, cell-based; conditions: dose 1-2 µM
NCI-H1975 [13] = assay: Induction of early apoptosis in human NCI-H1975 cells at 50 to 400 nM incubated for 24 hrs by Annexin V-FITC/PI staining based flow cytometry; assay type: functional, cell-based; conditions: dose 50-400 nM
[14] = Toxicity in zebrafish embryo assessed as damage effect in liver function at 2 uM with replacement of new growth solution daily by fluorescence microscopy relative to control; set-up: species or system Danio rerio; conditions: in vivo
[15] = Toxicity in zebrafish embryo assessed as liver development at 2 uM with replacement of new growth solution daily by fluorescence microscopy (reference value: 100.00 +/- 8.64 %); assay type: tissue-based, Danio rerio; conditions: in vivo
NCI-H1975 [16] = assay: Inhibition of cell viability in human NCI-H1975 cells assessed as cell index at 270 nM measured after 48 hrs by real-time cell analysis; assay type: functional
NCI-H1975 [17] = assay: Induction of ROS generation in human NCI-H1975 cells incubated for 24 hrs by DCFH-DA probe based analysis; assay type: functional, cell-based; conditions: dose 0.05-0.4 µM
[18] = Toxicity in zebrafish embryo assessed as degree of periocular edema at 4 uM pretreated with compound followed by replacement of growth liquid by microscopy (reference value: 0.00 %); set-up: species or system Danio rerio; conditions: in vivo, 24 h
[19] = Cytotoxicity against human BEAS-2B cells assessed as inhibition of cell viability incubated for 48 hrs by MTT assay; assay type: toxicity, cell-based
NCI-H1975 [20] = assay: Induction of apoptosis in human NCI-H1975 cells assessed as nuclear shrinkage at 400 nM incubated for 24 hrs by DAPI staining based analysis; assay type: functional, cell-based
BEAS-2B [21] = assay: Induction of apoptosis in human BEAS-2B cells assessed as morphological change in nucleus at 50 to 400 nM incubated for 24 hrs by DAPI staining based analysis; assay type: toxicity, cell-based; conditions: 0.4 µM, dose 50-400 nM
[22] = Developmental toxicity in zebrafish AB zygotes assessed as decrease in hatching rate at 0.25 to 1 uM treated at 6 hrs post-fertilization measured at 24 to 72 hrs post-fertilization; set-up: species or system Danio rerio; conditions: in vivo, dose lower 0.25 µM, time lower 18 hrs, dose upper 1 µM, time upper 66 hrs
[23] = Renal toxicity in fluorescent transgenic zebrafish at 0.5 to 1 uM treated for 48 hrs by fluorescence microscopy; set-up: species or system Danio rerio; conditions: in vivo, dose 0.5-1 µM
NCI-H1975 [24] = assay: Inhibition of cell proliferation in human NCI-H1975 cells xenografted in zebrafish at 1 uM measured after 48 hrs by confocal microscopy; assay type: functional, cell-based
[25] = Toxicity in zebrafish xenografted with human NCI-H1975 cells assessed as animal death at 2 uM; set-up: species or system Danio rerio
HepG2 = assay: Cytotoxicity against human HepG2 cells assessed as cell growth inhibition incubated for 48 hrs by MTT assay; assay type: functional, cell-based; conditions: dose 4.5-10 nM
[26] = Developmental toxicity in zebrafish AB zygotes assessed as embryo malformation at 0.5 to 2 uM treated at 6 hrs post-fertilization measured at 24 to 72 hrs post-fertilization; set-up: species or system Danio rerio; conditions: in vivo, dose lower 0.5 µM, time lower 18 hrs, dose upper 2 µM, time upper 66 hrs
[27] = Renal toxicity in zebrafish assessed as yolk sac absorption at 2 uM treated at 3 hrs post-fertilization measured at 48 hrs post-compound treatment by FITC staining based microscopy; set-up: species or system Danio rerio; conditions: in vivo
NCI-H1975 [28] = assay: Cytotoxicity against human NCI-H1975 cells assessed as cell growth inhibition at 123 nM by MTT assay; assay type: functional, cell-based; conditions: time 24-70 hrs, TDE = time-dependent effect
NCI-H1975 [29] = assay: Cytotoxicity against human NCI-H1975 cells assessed as cell growth inhibition at 4.5 to 10 nM incubated for 48 hrs by MTT assay relative to control; assay type: functional; conditions: dose 4.5-10 nM
[30] = Renal toxicity in zebrafish assessed as decrease in nephrin expression at 2 uM treated for 48 hrs by RT-qPCR analysis; set-up: species or system Danio rerio; conditions: in vivo
[31] = Cytotoxicity against human HUVEC cells assessed as cell growth inhibition at 4.5 to 10 nM incubated for 48 hrs by MTT assay relative to control; assay type: toxicity, cell-based; conditions: dose 4.5-10 nM, read-out: Imax
NCI-H460 = assay: Cytotoxicity against human NCI-H460 cells assessed as cell growth inhibition incubated for 48 hrs by MTT assay; assay type: functional, cell-based
NCI-H1975 [32] = assay: Cytotoxicity against human NCI-H1975 cells assessed as cell growth inhibition at >41.15 nM incubated for 48 hrs by MTT assay relative to control; assay type: functional
A549 = assay: Cytotoxicity against human A549 cells assessed as cell growth inhibition incubated for 48 hrs by MTT assay; assay type: functional, cell-based
MCF7 = assay: Cytotoxicity against human MCF7 cells assessed as cell growth inhibition at 4.5 to 10 nM incubated for 48 hrs by MTT assay relative to control; assay type: functional; conditions: dose 4.5-10 nM
Danio rerio [33] = species: Danio rerio; assay: Induction of ROS production in zebrafish at 1 to 2 uM measured after 48 hrs by fluorescence microscopy; assay type: functional, organism-based; conditions: dose 1-2 µM
[34] = Renal toxicity in fluorescent transgenic zebrafish at 0.5 to 2 uM treated for 48 hrs by fluorescence microscopy; set-up: species or system Danio rerio; conditions: in vivo, dose 0.5-2 µM
[35] = Toxicity in zebrafish xenografted with human NCI-H1975 cells assessed as body deformity at 1 uM; set-up: species or system Danio rerio

Which results are given for `CC(C)[C@]12O[C@H]1[C@@H]1O[C@]13[C@]1(O[C@H]1C[C@H]1C4=C(CC[C@@]13C)C(=O)OC4)[C@@H]2OC(=O)CCCCCCCC[n+]1ccc(/C=C/c2c[nH]c3ccccc23)cc1.[Br-]`?
Activity [1]: 72.82%; Activity [2]: 58.21%; Activity [3]: 23.76%; Activity [4]: Toxic; Activity (BEAS-2B [5]): Toxic; inhibition (NCI-H1975 [6]): Active; IC50 (NCI-H1975 [7]): 210 nM; Activity (Danio rerio [8]): Active; inhibition (NCI-H1975 [9]): Active; Activity [10]: Dose-Dependent Effect; Activity (BEAS-2B [11]): Non-Toxic; inhibition (NCI-H1975 [12]): Active; Activity (NCI-H1975 [13]): Active; Activity [14]: 79.96%; Activity [15]: 41.79%; Activity_index (NCI-H1975 [16]): 0; Activity (NCI-H1975 [17]): Dose-Dependent Effect; Activity [18]: 100%; IC50 at 48 h [19]: 19.2 µM; Activity (NCI-H1975 [20]): Active; Activity (BEAS-2B [21]): Non-Toxic; Activity [22]: Non-Toxic; Activity [23]: Non-Toxic

What does the source list for `CC(C)[C@]12O[C@H]1[C@@H]1O[C@@]13[C@@]1(C)CCC4=C(COC4=O)[C@@H]1C[C@@H]1O[C@@]13C2=O` [TRIPTONIDE]?
inhibition (NCI-H1975 [24]): Active; Activity [25]: Toxic; inhibition (HepG2): Active; Activity [26]: Toxic; Activity [27]: Toxic; inhibition (NCI-H1975 [28]): Tde; Imax (NCI-H1975 [29]): ~40%; Activity [30]: Toxic; Emax at 48 h [31]: ~60%; inhibition (NCI-H460): Dose-Dependent Effect; inhibition (INH) (NCI-H1975 [32]): <50%; inhibition (A549): Dose-Dependent Effect; Imax (MCF7): ~40%; Activity (Danio rerio [33]): Active; Activity [34]: Toxic; Activity [35]: Toxic
